In PubChem BioAssay (NCI):
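Assay format: 96-well plates, 48-hour exposure. GI50: concentration for 50% inhibition of growth. At the TGI there is no net growth.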

Tests used:
Test in all cases: growth of human tumour cells (NCI), 48 h
[1] = tested on: NCI-H23 lung
[2] = tested on: NCI/ADR-RES ovarian
[3] = tested on: MCF7 breast
[4] = tested on: SW-620 colon
[5] = tested on: HS 578T breast
[6] = tested on: RXF 393 renal
[7] = tested on: MDA-MB-435
[8] = tested on: SK-MEL-28 melanoma
[9] = tested on: HCT-15 colon
[10] = tested on: MDA-N

CC[C@@]1(OC(=O)CN(C)C)C(=O)OCc2c1cc1n(c2=O)Cc2cc3c(N)cccc3nc2-1
GI50 [1]: 27.7 nM | TGI [1]: 0.684 µM | GI50 [2]: 34 nM | TGI [2]: 2.41 µM | GI50 [3]: 0.0115 µM | TGI [3]: > 100 µM | GI50 [4]: 18.1 nM | TGI [4]: 2.57 µM | GI50 [5]: 2030 nM | TGI [5]: 58 µM | GI50 [6]: 144 nM | TGI [6]: 0.576 µM | GI50 [7]: 78 nM | TGI [7]: 0.259 µM | GI50 [8]: 297 nM | TGI [8]: 4.28 µM | GI50 [9]: 317 nM | TGI [9]: > 100 µM

Clc1cc2ccccc2c2ccccc12
TGI [1]: > 100 µM | TGI [2]: > 100 µM | TGI [3]: > 100 µM | TGI [4]: > 100 µM | TGI [5]: > 100 µM | TGI [6]: > 100 µM | TGI [7]: > 100 µM | TGI [8]: > 100 µM | TGI [9]: > 100 µM

O=C(O)C1OC1C(=O)O (stereo not drawn)
TGI [1]: > 100 µM | TGI [2]: > 100 µM | TGI [3]: > 100 µM | TGI [4]: > 100 µM | TGI [10]: > 100 µM | TGI [5]: > 100 µM | TGI [6]: > 100 µM | TGI [7]: > 100 µM | TGI [8]: > 100 µM | TGI [9]: > 100 µM

CN(C)CCNCc1ccc2c(-c3ccccc3)nc3cc(Cl)c(Cl)cc3n12
TGI [1]: 28.9 µM | TGI [2]: 31.4 µM | TGI [3]: 19.1 µM | TGI [4]: 28.3 µM | TGI [10]: 23.4 µM | TGI [5]: 47.6 µM | TGI [6]: 10 µM | TGI [7]: 21.9 µM | TGI [8]: 14.1 µM | TGI [9]: 23.2 µM

CCc1c2cc(OC)c(OC)cc2cc2c3cc(OC)c(OC)cc3cc[n+]12 (tested in a mixture with another compound)
TGI [1]: 60.5 µM | TGI [2]: > 61.1 µM | TGI [3]: > 91.6 µM | TGI [4]: 75.8 µM | TGI [10]: > 36.5 µM | TGI [5]: > 89.1 µM | TGI [6]: > 100 µM | TGI [7]: 25.5 µM | TGI [8]: > 79.4 µM | TGI [9]: > 61.7 µM

COc1cc2c(cc1OC)C1c3ccccc3CCN1CCC2 (stereo not drawn)
TGI [2]: > 100 µM | TGI [3]: > 100 µM | TGI [4]: > 100 µM | TGI [10]: > 100 µM | TGI [7]: > 100 µM | TGI [8]: > 100 µM | TGI [9]: > 100 µM

O=S(=O)(O)c1cc(S(=O)(=O)O)c2cc(N=Nc3c(O)ccc4ccccc34)ccc2c1
TGI [1]: > 100 µM | TGI [2]: > 100 µM | TGI [4]: > 100 µM | TGI [10]: > 100 µM | TGI [5]: > 100 µM | TGI [6]: > 100 µM | TGI [7]: > 100 µM | TGI [8]: > 100 µM | TGI [9]: > 100 µM

CCOC(=O)c1nc2ccccc2n(CC)c1=O
TGI [1]: > 100 µM | TGI [2]: > 100 µM | TGI [3]: > 100 µM | TGI [4]: > 100 µM | TGI [10]: > 100 µM | TGI [5]: > 100 µM | TGI [6]: > 100 µM | TGI [7]: > 100 µM | TGI [8]: > 100 µM | TGI [9]: > 100 µM

CO/N=C(/C)c1cccc(Nc2nc3ccc(Cl)cc3c3[nH]c4ccccc4c23)c1
TGI [1]: 28.5 µM | TGI [2]: 33 µM | TGI [3]: 26.2 µM | TGI [4]: 21.8 µM | TGI [10]: 24.3 µM | TGI [5]: 45.8 µM | TGI [6]: 6.92 µM | TGI [7]: 21.4 µM | TGI [9]: 27.1 µM

O=C1CNC(=O)/C(=C/c2c[nH]c3ccccc23)N1
TGI [1]: > 100 µM | TGI [2]: > 100 µM | TGI [3]: > 100 µM | TGI [4]: > 100 µM | TGI [10]: > 100 µM | TGI [5]: > 100 µM | TGI [6]: > 100 µM | TGI [7]: > 100 µM | TGI [8]: > 100 µM | TGI [9]: > 100 µM

COC(=O)c1c(C)[nH]c2c1C(=O)C(=O)c1nc(C)c(C)nc1-2
TGI [1]: 36.9 µM | TGI [2]: 78.1 µM | TGI [3]: 24.8 µM | TGI [4]: 41.7 µM | TGI [10]: 19.9 µM | TGI [5]: 58.6 µM | TGI [6]: 13.4 µM | TGI [7]: 28.5 µM | TGI [8]: 25.2 µM | TGI [9]: > 100 µM

Clc1ccc(C2CC(c3cccc(Nc4ccncc4)c3)=NN2c2ccc(Cl)cc2)cc1 (stereo not drawn)
GI50 [1]: 1830 nM | TGI [1]: 3.49 µM | GI50 [4]: 1800 nM | TGI [4]: 3.6 µM | GI50 [6]: 1540 nM | TGI [6]: 2.94 µM | GI50 [7]: 1710 nM | TGI [7]: 3.24 µM | GI50 [8]: 1670 nM | TGI [8]: 3.09 µM | GI50 [9]: 1550 nM | TGI [9]: 2.95 µM

Cc1cc(C)c2c(n1)S(=O)(=O)N(CCCN1CCN(c3cccc(Cl)c3)CC1)/C(=C(\O)c1ccccc1)C2=O
TGI [1]: 89.1 µM | TGI [2]: > 100 µM | TGI [3]: > 100 µM | TGI [4]: > 100 µM | TGI [10]: > 100 µM | TGI [5]: > 100 µM | TGI [7]: > 100 µM | TGI [8]: > 100 µM | TGI [9]: > 100 µM

O=C(Nn1c(-c2cccs2)nc2ccc(I)cc2c1=O)c1ccccc1
TGI [1]: 67.4 µM | TGI [2]: > 100 µM | GI50 [3]: 23.2 µM | TGI [3]: > 100 µM | TGI [4]: > 100 µM | TGI [10]: > 100 µM | TGI [6]: > 100 µM | TGI [7]: 45.7 µM | TGI [8]: 53 µM | TGI [9]: > 100 µM

OC(c1ccc(Cl)cc1)(c1ccc(Cl)cc1)c1cncnc1
TGI [1]: 61.6 µM | TGI [2]: 74.8 µM | TGI [3]: 47.8 µM | TGI [4]: 55.4 µM | TGI [10]: 37.7 µM | TGI [5]: 66.6 µM | TGI [6]: 28.4 µM | TGI [7]: 36.7 µM | TGI [8]: 38 µM | TGI [9]: 39.8 µM
